Measurements as given in ChEMBL document CHEMBL3351924, “Detailed analysis and follow-up studies of a high-throughput screening for indoleamine 2,3-dioxygenase 1 (IDO1) inhibitors” (Eur J Med Chem, 2014).
≈ marks a conversion by molar mass, not a printed value. Each block holds one compound with its values, some of them ahead of it.

Experiments:
[1] = Solubility of the compound in pH 6.5 phosphate buffer containing 5% DMSO
[2] = target: T1, Indoleamine 2,3-dioxygenase 1 (Homo sapiens, UniProt P14902); assay: Inhibition of IDO1 (unknown origin) using L-tryptophan substrate incubated for 60 mins by HPLC
[3] = target: T1, Indoleamine 2,3-dioxygenase 1; assay: Inhibition of IDO1 (unknown origin) using L-tryptophan substrate incubated for 60 mins in presence of 5 mM GSH by HPLC
[4] = Cytotoxicity against mouse P815B cells after 24 hrs by MTS/PMS assay
[5] = target: Indoleamine 2,3-dioxygenase 1 (Mus musculus, UniProt P28776); assay: Inhibition of mouse IDO1 expressed in mouse P815B cells using L-tryptophan substrate incubated for 18 hrs by HPLC based cellular assay; type: cell-based
[6] = target: Tryptophan 2,3-dioxygenase (Mus musculus, UniProt P48776); assay: Inhibition of mouse TDO expressed in mouse P815B cells using L-tryptophan substrate incubated for 24 hrs by HPLC based cellular assay; type: cell-based; conditions: p815b
[7] = target: T1, Indoleamine 2,3-dioxygenase 1; assay: Inhibition of IDO1 (unknown origin) using L-tryptophan substrate incubated for 60 mins in presence of 0.01% Triton-X by HPLC
[8] = phosphate buffer containing 5% DMSO

T1 sequence (P14902 whole entry): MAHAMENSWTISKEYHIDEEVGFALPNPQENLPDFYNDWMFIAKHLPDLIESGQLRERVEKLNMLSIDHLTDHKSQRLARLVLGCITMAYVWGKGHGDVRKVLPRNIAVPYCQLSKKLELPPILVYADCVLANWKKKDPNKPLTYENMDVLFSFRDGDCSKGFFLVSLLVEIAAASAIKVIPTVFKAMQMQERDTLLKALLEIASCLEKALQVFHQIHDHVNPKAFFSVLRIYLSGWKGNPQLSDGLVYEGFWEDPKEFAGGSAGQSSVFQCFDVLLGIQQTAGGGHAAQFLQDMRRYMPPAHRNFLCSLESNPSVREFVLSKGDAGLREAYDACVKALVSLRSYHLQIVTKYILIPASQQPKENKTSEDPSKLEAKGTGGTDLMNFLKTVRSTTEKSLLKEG
Tryptophan 2,3-dioxygenase, sequence (P48776 whole entry): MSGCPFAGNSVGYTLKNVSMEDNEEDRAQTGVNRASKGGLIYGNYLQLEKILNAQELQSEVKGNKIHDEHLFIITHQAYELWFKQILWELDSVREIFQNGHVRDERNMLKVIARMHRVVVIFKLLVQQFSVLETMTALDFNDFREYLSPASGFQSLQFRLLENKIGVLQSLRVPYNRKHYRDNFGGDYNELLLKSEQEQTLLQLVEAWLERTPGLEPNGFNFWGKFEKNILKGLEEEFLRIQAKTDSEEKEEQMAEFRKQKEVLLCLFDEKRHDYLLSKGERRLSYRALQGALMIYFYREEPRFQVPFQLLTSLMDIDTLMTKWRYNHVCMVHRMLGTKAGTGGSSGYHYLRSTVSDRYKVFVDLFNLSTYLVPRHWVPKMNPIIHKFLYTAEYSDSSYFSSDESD
Indoleamine 2,3-dioxygenase 1 (Mus musculus, UniProt P28776), sequence (P28776 whole entry): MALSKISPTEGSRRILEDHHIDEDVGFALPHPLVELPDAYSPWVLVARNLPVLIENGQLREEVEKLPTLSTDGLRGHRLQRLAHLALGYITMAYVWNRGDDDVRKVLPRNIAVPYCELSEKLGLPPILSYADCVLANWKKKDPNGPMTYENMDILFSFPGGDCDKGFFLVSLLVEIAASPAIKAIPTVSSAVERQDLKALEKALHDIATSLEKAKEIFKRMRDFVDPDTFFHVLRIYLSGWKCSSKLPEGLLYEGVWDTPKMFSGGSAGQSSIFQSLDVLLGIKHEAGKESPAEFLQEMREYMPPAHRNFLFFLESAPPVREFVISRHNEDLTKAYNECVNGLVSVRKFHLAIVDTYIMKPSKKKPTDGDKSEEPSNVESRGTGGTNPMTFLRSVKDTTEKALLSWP

solubility ([1]; buffer): 1000 µM (≈ 207 µg/mL)
IC50 [2]: Not Active
Compound: Cc1cc(C2CCCCC2)n(O)c(=O)c1 [CICLOPIROX]

solubility [1, 8]: 10 µM (≈ 3.17 µg/mL)
IC50 [2]: Not Active
Compound: Oc1ccc(Br)cc1/C=N/c1ccc2[nH]nnc2c1

Compound: N#CC(C#N)=C1c2cc(S(N)(=O)=O)cc([N+](=O)[O-])c2-c2c1cc(S(N)(=O)=O)cc2[N+](=O)[O-]
IC50 [3]: 1.6 µM
CC50 at 24 h ([4]; P815B cells): > 25 µM
solubility [1, 8]: 250 µM (≈ 119 µg/mL)
IC50 ([5]; p815b): Not Active
IC50 ([2]; read-out: IC50): 1 µM
IC50 [6]: Not Active
IC50 ([7]; read-out: IC50): 0.96 µM

solubility [1, 8]: 25 µM (≈ 8.66 µg/mL)
Compound: CCN(CC)c1ccc(NC(=O)C2CCCCC2)c(N(CC)CC)n1

Compound: NNCCc1ccccc1 [PHENELZINE]
CC50 at 24 h ([4]; p815b): > 25 µM
solubility ([1]; buffer): 1000 µM (≈ 136 µg/mL)
IC50 ([5]; p815b): Not Active
IC50 ([2]; read-out: IC50): 14 µM
IC50 [6]: Not Active

Compound: CCOC(=O)c1ccc(-n2sccc2=O)cc1
IC50 [3]: 100 µM
CC50 at 24 h ([4]; P815B cells): 10 µM
solubility [1, 8]: 500 µM (≈ 125 µg/mL)
IC50 ([5]; p815b): Not Active
IC50 ([2]; read-out: IC50): 15 µM
IC50 [6]: Not Active
IC50 ([7]; read-out: IC50): 11 µM

solubility [1, 8]: 50 µM (≈ 19.4 µg/mL)
IC50 [2]: Not Active
Compound: COC(=O)C1=C(C)NC(C)=C(C(=O)OCC(C)C)C1c1ccccc1[N+](=O)[O-] (stereo not given) [NISOLDIPINE]

solubility [1, 8]: 1000 µM (≈ 253 µg/mL)
Compound: CNC(=S)N/N=C/c1ccc(OC)c(OC)c1

solubility [1, 8]: > 1000 µM
IC50 [7]: Not Active
Compound: Clc1ccc(-n2ccnc2)c(Cl)c1

Compound: Clc1ccc(COC(Cn2ccnc2)c2ccc(Cl)cc2Cl)c(Cl)c1 (stereo not given) [MICONAZOLE]
CC50 at 24 h ([4]; p815b): 10 µM
solubility [1, 8]: 10 µM (≈ 4.16 µg/mL)
IC50 ([5]; p815b): Not Active
IC50 ([2]; read-out: IC50): 6.7 µM
IC50 [6]: Not Active
IC50 ([7]; read-out: IC50): 3.8 µM

Compound: c1ccc(-c2ccc(C(c3ccccc3)n3ccnc3)cc2)cc1 (stereo not given) [BIFONAZOLE]
CC50 at 24 h ([4]; P815B cells): 10 µM
solubility [1, 8]: 25 µM (≈ 7.76 µg/mL)
IC50 ([5]; p815b): Not Active
IC50 ([2]; read-out: IC50): 23 µM
IC50 [6]: Not Active

solubility [1, 8]: > 1000 µM
IC50 [7]: Not Active
Compound: c1ccc(CCn2ccnc2)cc1

solubility [1, 8]: > 1000 µM
IC50 [7]: Not Active
Compound: Clc1ccc(COCCn2ccnc2)c(Cl)c1

Compound: C=CCOC(Cn1ccnc1)c1ccc(Cl)cc1Cl (stereo not given) [ENILCONAZOLE]
CC50 at 24 h ([4]; P815B cells): > 25 µM
solubility [1, 8]: 10 µM (≈ 2.97 µg/mL)
IC50 ([5]; p815b): Not Active
IC50 ([2]; read-out: IC50): 23 µM
IC50 [6]: Not Active

solubility [1, 8]: 1000 µM (≈ 225 µg/mL)
Compound: CN(C)/C=N/C(=S)Nc1cccc(F)c1

solubility [1, 8]: 10 µM (≈ 4.12 µg/mL)
IC50 [2]: Not Active
Compound: Clc1ccc(CCC(Cn2ccnc2)Sc2c(Cl)cccc2Cl)cc1 (stereo not given) [BUTOCONAZOLE]

solubility [1, 8]: > 1000 µM
IC50 [7]: Not Active
Compound: Oc1ccccc1C(O)Cn1ccnc1 (stereo not given)

solubility [1, 8]: 1000 µM (≈ 225 µg/mL)
Compound: COCCCNC(=O)N/N=C/c1ccco1

Compound: N=C(N)SCc1nc(-c2ccc(Cl)cc2)no1
CC50 at 24 h ([4]; P815B cells): 10 µM
solubility [1, 8]: 1000 µM (≈ 269 µg/mL)
IC50 ([5]; read-out: IC50): 2.1 µM
IC50 ([2]; read-out: IC50): 0.89 µM
IC50 [6]: Not Active
IC50 ([7]; read-out: IC50): 1.2 µM

solubility [1, 8]: 100 µM (≈ 21.2 µg/mL)
IC50 [2]: Not Active
Compound: S=c1[nH]cc(-c2ccc(Cl)cc2)o1

Compound: CC(=O)N1CCN(c2ccc(OCC3COC(Cn4ccnc4)(c4ccc(Cl)cc4Cl)O3)cc2)CC1 (stereo not given) [KETOCONAZOLE]
CC50 at 24 h ([4]; P815B cells): 25 µM
solubility [1, 8]: 100 µM (≈ 53.1 µg/mL)
IC50 ([5]; p815b): Not Active
IC50 ([2]; read-out: IC50): 32 µM
IC50 [6]: Not Active
IC50 ([7]; read-out: IC50): 25 µM

solubility [1, 8]: 50 µM (≈ 23.7 µg/mL)
Compound: O=C(c1ccc(OCCN2CCCCC2)cc1)c1c(-c2ccc(O)cc2)sc2cc(O)ccc12 [RALOXIFENE]

Compound: O=c1ccsn1-c1cccc(Cl)c1F
IC50 [3]: 200 µM
CC50 at 24 h ([4]; P815B cells): 10 µM
solubility [1, 8]: 1000 µM (≈ 230 µg/mL)
IC50 ([5]; p815b): Not Active
IC50 ([2]; read-out: IC50): 11 µM
IC50 [6]: Not Active
IC50 ([7]; read-out: IC50): 4.8 µM

solubility [1, 8]: 1000 µM (≈ 279 µg/mL)
Compound: Cc1cc(NS(=O)(=O)c2ccc(Cl)s2)no1

Compound: COC(=O)C1=C(C)NC(C)=C(C(=O)OC)C1c1ccccc1[N+](=O)[O-] [NIFEDIPINE]
IC50 [2]: Not Active

solubility [1, 8]: > 1000 µM
IC50 [7]: Not Active
Compound: OC(Cn1ccnc1)c1c(Cl)cccc1Cl (stereo not given)

solubility [1, 8]: 1000 µM (≈ 180 µg/mL)
Compound: Cc1cc(C)n2[nH]c(=S)nc2n1

Compound: Clc1ccc(C(Cn2ccnc2)OCc2c(Cl)cccc2Cl)c(Cl)c1 (stereo not given) [ISOCONAZOLE]
CC50 at 24 h ([4]; P815B cells): 10 µM
solubility [1, 8]: 50 µM (≈ 20.8 µg/mL)
IC50 ([5]; p815b): Not Active
IC50 ([2]; read-out: IC50): 23 µM
IC50 [6]: Not Active

solubility [1, 8]: 50 µM (≈ 18.2 µg/mL)
Compound: Oc1nc(=S)ccn1-c1nc(-c2ccccc2)sc1-c1ccccc1

solubility [1, 8]: 1000 µM (≈ 255 µg/mL)
Compound: CC(C)(C)S(=O)(=O)/C(C#N)=C/c1ccsc1

solubility [1, 8]: > 1000 µM
IC50 ([7]; read-out: IC50): 84 µM
Compound: Clc1ccc(C(Cn2ccnc2)OCc2cccnc2)c(Cl)c1 (stereo not given)

solubility [1, 8]: 1000 µM (≈ 205 µg/mL)
IC50 [2]: Not Active
Compound: NC(=S)N/N=C1\CCc2ccccc21

solubility [1, 8]: 50 µM (≈ 19 µg/mL)
IC50 [2]: Not Active
Compound: CC1=C(C#N)C(c2ccc(-c3ccc(Cl)cc3[N+](=O)[O-])o2)C(C#N)=C(C)N1

Compound: Clc1ccc(CO/N=C(\Cn2ccnc2)c2ccc(Cl)cc2Cl)c(Cl)c1 [OXICONAZOLE]
CC50 at 24 h ([4]; p815b): 10 µM
solubility [1, 8]: 20 µM (≈ 8.58 µg/mL)
IC50 ([5]; p815b): Not Active
IC50 ([2]; read-out: IC50): 28 µM
IC50 [6]: Not Active

solubility [1, 8]: 100 µM (≈ 29.7 µg/mL)
IC50 [2]: Not Active
Compound: CCN(CC)C(=S)SSC(=S)N(CC)CC

solubility [1, 8]: 1000 µM (≈ 166 µg/mL)
IC50 [2]: Not Active
Compound: Nc1n[nH]c2cc(O)[nH]c(=O)c12

solubility [1, 8]: 1 µM (≈ 0.456 µg/mL)
Compound: CCOC(=O)C1=C(C)NC(C)=C(C(=O)OCC)C1c1ccccc1/C=C/C(=O)OC(C)(C)C [LACIDIPINE]
